Laboratory results from ChEMBL document CHEMBL1139197, “Synthesis, structural analysis, and SAR studies of triazine derivatives as potent, selective Tie-2 inhibitors” (Bioorg Med Chem Lett, 2007).
pIC50: −log10 of the molar value. Converted amounts (≈) assume the structure as drawn.

Assays:
Angiopoietin-1 receptor [1] = biological target: T1, Angiopoietin-1 receptor (Homo sapiens, UniProt Q02763); assay: Inhibition of Tie2 after 90 mins by HTRF assay
[2] = biological target: T2, Vascular endothelial growth factor receptor 2 (Homo sapiens, UniProt P35968); assay: Inhibition of KDR after 90 mins by HTRF assay
T2 sequence (P35968 whole entry): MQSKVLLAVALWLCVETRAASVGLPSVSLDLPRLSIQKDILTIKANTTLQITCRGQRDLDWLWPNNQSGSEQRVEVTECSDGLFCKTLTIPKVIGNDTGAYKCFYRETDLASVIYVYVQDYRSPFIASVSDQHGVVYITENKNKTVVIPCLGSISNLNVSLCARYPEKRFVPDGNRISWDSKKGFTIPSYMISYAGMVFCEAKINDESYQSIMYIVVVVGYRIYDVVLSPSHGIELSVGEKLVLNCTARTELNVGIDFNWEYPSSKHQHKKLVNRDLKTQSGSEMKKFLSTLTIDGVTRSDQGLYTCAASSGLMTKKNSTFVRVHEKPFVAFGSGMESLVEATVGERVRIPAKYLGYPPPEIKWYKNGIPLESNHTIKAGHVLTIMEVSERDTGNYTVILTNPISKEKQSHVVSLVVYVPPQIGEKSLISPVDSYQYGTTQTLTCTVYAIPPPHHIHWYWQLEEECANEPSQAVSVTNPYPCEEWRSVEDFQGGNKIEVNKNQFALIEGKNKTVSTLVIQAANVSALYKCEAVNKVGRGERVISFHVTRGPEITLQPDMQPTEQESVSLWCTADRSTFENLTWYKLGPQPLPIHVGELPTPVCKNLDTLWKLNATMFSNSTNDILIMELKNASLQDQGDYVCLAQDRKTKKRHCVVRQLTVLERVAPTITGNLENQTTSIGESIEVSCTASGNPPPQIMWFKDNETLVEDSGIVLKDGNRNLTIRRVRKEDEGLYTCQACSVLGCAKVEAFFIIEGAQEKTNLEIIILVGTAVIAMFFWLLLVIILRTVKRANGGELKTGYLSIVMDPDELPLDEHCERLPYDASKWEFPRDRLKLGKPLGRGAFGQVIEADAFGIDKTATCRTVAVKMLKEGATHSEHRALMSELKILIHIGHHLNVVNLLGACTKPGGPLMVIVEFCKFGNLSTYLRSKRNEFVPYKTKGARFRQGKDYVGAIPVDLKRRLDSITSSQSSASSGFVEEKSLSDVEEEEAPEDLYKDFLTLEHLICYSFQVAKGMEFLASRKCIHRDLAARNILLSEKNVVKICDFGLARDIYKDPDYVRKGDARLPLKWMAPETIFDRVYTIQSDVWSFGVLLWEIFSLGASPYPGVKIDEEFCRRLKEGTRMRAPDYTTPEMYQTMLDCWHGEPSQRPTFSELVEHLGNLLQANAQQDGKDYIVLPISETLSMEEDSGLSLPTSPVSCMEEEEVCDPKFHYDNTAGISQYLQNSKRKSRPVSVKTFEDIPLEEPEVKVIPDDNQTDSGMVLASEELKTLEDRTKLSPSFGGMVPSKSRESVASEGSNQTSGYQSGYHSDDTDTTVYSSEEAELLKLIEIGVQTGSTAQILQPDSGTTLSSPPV

Angiopoietin-1 receptor [3] = biological target: T1, Angiopoietin-1 receptor; assay: Inhibition of Tie2 autophosphorylation in EA.hy926 cells after […]; format: cell-based
[4] = Clearance in Sprague-Dawley rat at 2 mg/kg, iv; format: ADME, organism-based; set-up: dose 2 mg/kg, route intravenous; settings: in vivo
[5] = biological target: T2, Vascular endothelial growth factor receptor 2; assay: Inhibition of KDR autophosphorylation in EA.hy926 cells after […]; format: cell-based
[6] = biological target: Vascular endothelial growth factor receptor 2 and tyrosine-protein kinase TIE-2 (KDR and TIE2) (Homo sapiens) (UniProt P35968+Q02763); assay: Selectivity for Tie2 over KDR in cell based autophosphorylation assay
Vascular endothelial growth factor receptor 2 and tyrosine-protein kinase TIE-2 (KDR and TIE2) (Homo sapiens), sequence (P35968 whole entry, looked up): as the sequence (P35968 whole entry) above
Vascular endothelial growth factor receptor 2 and tyrosine-protein kinase TIE-2 (KDR and TIE2) (Homo sapiens), sequence (Q02763 whole entry, looked up): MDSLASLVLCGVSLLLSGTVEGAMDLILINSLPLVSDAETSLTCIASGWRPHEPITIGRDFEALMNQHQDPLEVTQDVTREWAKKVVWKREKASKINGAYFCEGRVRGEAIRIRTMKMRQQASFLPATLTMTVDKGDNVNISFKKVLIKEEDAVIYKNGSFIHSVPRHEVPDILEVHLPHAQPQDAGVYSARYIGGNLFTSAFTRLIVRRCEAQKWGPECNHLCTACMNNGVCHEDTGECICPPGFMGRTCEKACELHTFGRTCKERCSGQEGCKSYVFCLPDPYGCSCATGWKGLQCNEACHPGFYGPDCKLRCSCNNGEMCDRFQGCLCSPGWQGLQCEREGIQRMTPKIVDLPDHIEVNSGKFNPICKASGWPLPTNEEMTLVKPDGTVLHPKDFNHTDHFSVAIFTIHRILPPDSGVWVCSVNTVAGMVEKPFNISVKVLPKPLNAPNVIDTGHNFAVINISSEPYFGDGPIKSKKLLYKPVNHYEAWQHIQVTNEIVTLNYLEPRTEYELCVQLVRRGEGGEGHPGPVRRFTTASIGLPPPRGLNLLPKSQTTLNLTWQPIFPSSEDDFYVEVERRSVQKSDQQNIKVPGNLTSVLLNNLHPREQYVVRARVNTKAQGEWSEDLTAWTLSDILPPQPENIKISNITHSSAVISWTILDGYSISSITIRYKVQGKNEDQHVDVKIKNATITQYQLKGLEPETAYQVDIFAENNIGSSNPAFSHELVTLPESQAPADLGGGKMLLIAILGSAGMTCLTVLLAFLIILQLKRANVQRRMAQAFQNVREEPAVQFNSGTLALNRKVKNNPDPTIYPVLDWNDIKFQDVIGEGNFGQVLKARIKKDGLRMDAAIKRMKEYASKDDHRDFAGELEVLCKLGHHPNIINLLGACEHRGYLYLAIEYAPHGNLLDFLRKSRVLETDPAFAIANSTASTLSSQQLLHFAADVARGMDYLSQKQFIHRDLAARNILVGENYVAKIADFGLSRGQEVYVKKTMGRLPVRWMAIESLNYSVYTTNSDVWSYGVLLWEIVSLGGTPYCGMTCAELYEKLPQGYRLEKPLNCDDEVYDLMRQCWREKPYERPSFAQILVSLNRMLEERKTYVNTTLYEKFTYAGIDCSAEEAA

[7] = biological target: Fibroblast growth factor receptor (Homo sapiens, UniProt P22607+P11362+P22455+P21802); assay: Inhibition of FGFR by radioactive filtration assay; format: protein assay
[8] = biological target: Mitogen-activated protein kinase 10 (Homo sapiens, UniProt P53779); assay: Inhibition of JNK3 by radioactive filtration assay
Mitogen-activated protein kinase 10, sequence (P53779 whole entry): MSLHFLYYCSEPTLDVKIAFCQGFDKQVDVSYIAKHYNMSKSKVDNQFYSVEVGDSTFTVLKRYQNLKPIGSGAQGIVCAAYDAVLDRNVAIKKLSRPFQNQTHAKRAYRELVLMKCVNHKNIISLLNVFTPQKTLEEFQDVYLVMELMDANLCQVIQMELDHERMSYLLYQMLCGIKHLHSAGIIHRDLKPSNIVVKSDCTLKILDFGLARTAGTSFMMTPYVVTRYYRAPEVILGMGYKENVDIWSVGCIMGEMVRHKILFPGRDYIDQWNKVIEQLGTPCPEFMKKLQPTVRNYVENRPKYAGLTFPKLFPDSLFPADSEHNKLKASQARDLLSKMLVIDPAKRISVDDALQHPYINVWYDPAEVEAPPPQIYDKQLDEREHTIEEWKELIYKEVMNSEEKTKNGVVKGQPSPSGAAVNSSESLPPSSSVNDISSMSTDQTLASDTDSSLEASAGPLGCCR

[9] = biological target: Mast/stem cell growth factor receptor Kit (Homo sapiens, UniProt P10721); assay: Inhibition of cKit by radioactive filtration assay
[10] = Solubility in phosphate buffer at pH 7.1; format: physicochemical
[11] = Volume of distribution in Sprague-Dawley rat at 2 mg/kg, iv; format: ADME, organism-based; set-up: dose 2 mg/kg, route intravenous; settings: in vivo, read-out: Vdss
[12] = biological target: Tyrosine-protein kinase Lck (Homo sapiens, UniProt P06239); assay: Inhibition of Lck by radioactive filtration assay
Tyrosine-protein kinase Lck, sequence (P06239 whole entry): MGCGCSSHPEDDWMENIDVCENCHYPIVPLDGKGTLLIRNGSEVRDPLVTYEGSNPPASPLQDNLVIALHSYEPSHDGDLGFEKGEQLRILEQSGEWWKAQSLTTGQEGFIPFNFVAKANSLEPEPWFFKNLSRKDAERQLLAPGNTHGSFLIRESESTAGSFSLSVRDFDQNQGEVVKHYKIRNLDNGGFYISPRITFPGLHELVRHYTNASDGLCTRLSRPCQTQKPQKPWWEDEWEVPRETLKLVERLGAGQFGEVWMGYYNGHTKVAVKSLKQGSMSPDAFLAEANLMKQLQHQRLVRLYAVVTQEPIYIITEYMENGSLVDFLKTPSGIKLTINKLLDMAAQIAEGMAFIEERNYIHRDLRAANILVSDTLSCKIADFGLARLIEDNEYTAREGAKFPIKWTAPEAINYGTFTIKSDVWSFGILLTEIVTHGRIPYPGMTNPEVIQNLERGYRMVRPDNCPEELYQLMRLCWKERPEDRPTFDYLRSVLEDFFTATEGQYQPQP

[13] = biological target: T3, Mitogen-activated protein kinase 14 (Homo sapiens, UniProt Q16539); assay: Inhibition of p38-alpha in THP1 cells assessed as TNFalpha levels; format: cell-based, THP-1
T3 sequence (Q16539 whole entry): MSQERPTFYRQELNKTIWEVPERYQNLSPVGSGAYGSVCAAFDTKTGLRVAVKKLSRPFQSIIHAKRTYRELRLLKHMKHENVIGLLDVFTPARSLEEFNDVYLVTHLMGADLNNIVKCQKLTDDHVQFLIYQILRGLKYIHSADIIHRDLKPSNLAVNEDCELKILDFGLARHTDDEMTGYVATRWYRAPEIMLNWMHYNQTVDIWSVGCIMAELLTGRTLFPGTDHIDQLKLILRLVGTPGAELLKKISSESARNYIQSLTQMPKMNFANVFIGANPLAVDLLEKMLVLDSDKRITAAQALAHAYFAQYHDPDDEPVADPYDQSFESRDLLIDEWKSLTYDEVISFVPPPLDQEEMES

[14] = AUC (0 to infinity) in Sprague-Dawley rat at 10 mg/kg, po; format: ADME, organism-based; set-up: time infinity, dose 10 mg/kg, route oral; settings: plasma
[15] = biological target: T3, Mitogen-activated protein kinase 14; assay: Inhibition of p38-alpha by radioactive filtration assay
[16] = biological target: Tyrosine-protein kinase JAK2 (Homo sapiens, UniProt O60674); assay: Inhibition of Jak2 by radioactive filtration assay
[17] = Solubility in 0.01 N HCl at pH 2.0; format: physicochemical
[18] = Oral bioavailability in Sprague-Dawley rat at 10 mg/kg, po; format: ADME, organism-based; settings: in vivo
[19] = Mean residence time in Sprague-Dawley rat; format: ADME, organism-based; settings: in vivo
[20] = Half life in Sprague-Dawley rat at 2 mg/kg, iv; format: ADME, organism-based; set-up: dose 2 mg/kg, route intravenous; settings: in vivo
[21] = biological target: Proto-oncogene tyrosine-protein kinase Src (Homo sapiens, UniProt P12931); assay: Inhibition of Src by radioactive filtration assay
Proto-oncogene tyrosine-protein kinase Src, sequence (P12931 2-536 limits assumed): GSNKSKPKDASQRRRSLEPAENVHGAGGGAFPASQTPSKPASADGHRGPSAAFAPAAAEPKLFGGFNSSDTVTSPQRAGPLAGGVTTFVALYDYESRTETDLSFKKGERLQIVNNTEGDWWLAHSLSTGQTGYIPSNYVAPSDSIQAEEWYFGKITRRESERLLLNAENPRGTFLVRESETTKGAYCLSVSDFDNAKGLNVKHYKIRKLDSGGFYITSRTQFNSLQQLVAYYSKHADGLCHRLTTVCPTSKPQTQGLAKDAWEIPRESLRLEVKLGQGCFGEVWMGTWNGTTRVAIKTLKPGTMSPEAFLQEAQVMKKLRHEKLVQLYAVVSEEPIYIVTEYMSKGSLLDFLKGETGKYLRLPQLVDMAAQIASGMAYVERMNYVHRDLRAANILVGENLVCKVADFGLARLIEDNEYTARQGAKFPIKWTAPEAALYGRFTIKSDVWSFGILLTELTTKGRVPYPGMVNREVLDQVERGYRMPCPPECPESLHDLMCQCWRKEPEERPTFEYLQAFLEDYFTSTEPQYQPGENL

[22] = Cmax in Sprague-Dawley rat at 10 mg/kg, po; format: ADME, organism-based; set-up: dose 10 mg/kg, route oral; settings: in vivo

T1 sequence (Q02763 whole entry): as the sequence (Q02763 whole entry, looked up) above

pIC50 (Angiopoietin-1 receptor [1]) | pIC50 [2] | pIC50 (Angiopoietin-1 receptor [3]) | clearance [4] | Compound | further results
9.00 | 7.74 | 7.96 | 54.3 mL/min/kg | CNc1cc(-c2cccnc2Oc2cc(NC(=O)c3cccc(C(C)C)c3)ccc2C)ccn1 | –
8.10 | 6.35 | 7.82 | 83 mL/min/kg | CNc1ncnc(-c2cccnc2Oc2cc(NC(=O)c3cccc(OC(F)(F)F)c3)ccc2C)n1 | pIC50 [5]: 6.27
9.00 | 7.70 | – | – | CNc1ncnc(-c2cccnc2Oc2cc(C(=O)Nc3cccc(C(C)C)c3)ccc2C)n1 | –
7.26 | 4.60 | – | – | CNc1ncnc(-c2cccnc2Oc2cc(NC(=O)c3cccc(C(C)C)c3)cc(C(F)(F)F)c2)n1 | –
8.70 | 8.70 | – | – | CNc1nccc(-c2cccnc2Oc2cc(NC(=O)c3cccc(C(C)C)c3)ccc2C)n1 | –
7.70 | 6.51 | – | – | CNc1ncnc(-c2cccnc2Oc2cc(NC(=O)c3cccc(C(F)(F)F)c3)ccc2C)n1 | –
– | 7.21 | – | – | Cc1ccc(NC(=O)c2cccc(C(F)(F)F)c2)cc1Nc1ncccc1-c1ccncn1 | –
7.77 | 5.95 | 7.64 | 63.8 mL/min/kg | CNc1ncnc(-c2cccnc2Oc2cc(NC(=O)c3cccc(-n4cccc4)c3)ccc2C)n1 | pIC50 [5]: 4.60; Ratio IC50 [6]: > 1000
8.05 | 6.63 | 7.89 | 60.7 mL/min/kg | CNc1cc(-c2cccnc2Oc2cc(NC(=O)c3cccc(OC(F)(F)C(F)F)c3)ccc2C)ccn1 | pIC50 [5]: 6.03
8.22 | 8.05 | – | – | CNc1cc(-c2cccnc2Oc2ccc(Cl)c(NC(=O)c3cccc(C(C)C)c3)c2)ccn1 | –
8.22 | 6.34 | 7.07 | 73.7 mL/min/kg | CNc1ncnc(-c2cccnc2Oc2cccc(NC(=O)c3cccc(C(C)C)c3)c2)n1 | –
7.89 | 7.42 | – | – | CNc1nccc(-c2cccnc2Oc2cc(C(=O)Nc3cccc(C(C)C)c3)ccc2C)n1 | –
8.40 | 7.74 | – | – | CNc1cc(-c2cccnc2Oc2cccc(NC(=O)c3cccc(C(C)C)c3)c2)ccn1 | –
8.52 | 8.30 | – | – | CNc1cc(-c2cccnc2Oc2cc(C(=O)Nc3cccc(C(C)C)c3)ccc2C)ccn1 | –
8.40 | 6.89 | – | 18.4 mL/min/kg | CNc1ncnc(-c2cccnc2Oc2cc(NC(=O)c3cccc(C(C)C)c3)ccc2F)n1 | MRT [19]: 0.5 h; half-life [20]: 0.8 h
9.00 | 6.93 | 8.30 | 65.7 mL/min/kg | CNc1ncnc(-c2cccnc2Oc2cc(NC(=O)c3cccc(C(C)C)c3)ccc2C)n1 | –

Compound | pIC50 (Angiopoietin-1 receptor [1]) | pIC50 [2] | pIC50 (Angiopoietin-1 receptor [3]) | clearance [4] | further results
CNc1ncnc(-c2cccnc2Oc2cc(NC(=O)c3cccc(OC(F)(F)C(F)F)c3)ccc2C)n1 | 7.80 | 6.00 | 7.48 | 14.8 mL/min/kg | IC50 [7]: 5360 nM; pIC50 [8]: 4.40; pIC50 [9]: 4.75; solubility [10]: 3 µg/mL (≈ 5.68 µM); Vd [11]: 1.31 L/kg; pIC50 [12]: 6.84; pIC50 [13]: 6.71; AUC(0-inf) [14]: 509 ng·h/mL; pIC50 [15]: 7.33; pIC50 [5]: 5.37; pIC50 [16]: 5.76; solubility [17]: 21 µg/mL (≈ 39.7 µM); bioavailability [18]: 4%; MRT [19]: 1.5 h; half-life [20]: 1.7 h; pIC50 [21]: 5.66; Cmax [22]: 119 ng/mL
